Key:
Type in all cases: in vivo
[1] = tested on: Echinochloa crus-galli (ECHCG); experiment: Post-emergence herbicide test, glasshouse, percentage damage; settings: evaluated after 13 days
Experimental: (§1) Seeds of a variety of test species are sown in standard soil in pots (Lolium perenne (LOLPE), Solanum nigrum (SOLNI), Amaranthus retoflexus (AMARE), Setaria faberi (SETFA), Echinochloa crus-galli (ECHCG), Ipomoea hederacea (IPOHE)). After cultivation for one day (pre-emergence) or after 8 days cultivation (post-emergence) under controlled conditions in a glasshouse (at 24/16° C., day/night; 14 hours light; 65% humidity), the plants are sprayed with an aqueous spray solution derived from the formulation of the technical active ingredient in acetone/water (50:50) solution containing 0.5% Tween 20 (polyoxyethelyene sorbitan monolaurate, CAS RN 9005-64-5). Compounds are applied at 500 g/ha unless otherwise stated. The test plants are then grown in a glasshouse under controlled conditions in a glasshouse (at 24/16° C., day/night; 14 hours light; 65% humidity) and watered twice daily. After 13 days for pre and post-emergence, the test is evaluated for the percentage damage caused to the plant. The biological activities are shown in the following table on a five point scale (5=81-100%; 4=61-80%; 3=41-60%; 2=21-40%; 1=0-20%).

[2] = tested on: Ipomoea hederacea (IPOHE); experiment: as above; settings: evaluated after 13 days
Experimental: as §1

Setaria faberi (SETFA) [3] = experiment: as above; settings: evaluated after 13 days
Experimental: as §1

[4] = tested on: Amaranthus retoflexus (AMARE); experiment: as above; settings: evaluated after 13 days
Experimental: as §1

[5] = tested on: Echinochloa crus-galli (ECHCG); experiment: Pre-emergence herbicide test, glasshouse, percentage damage; settings: evaluated after 13 days
Experimental: as §1

[6] = tested on: Ipomoea hederacea (IPOHE); experiment: as above; settings: rate 250 g/ha, evaluated after 13 days
Experimental: as §1

Setaria faberi (SETFA) [7] = experiment: as above; settings: evaluated after 13 days
Experimental: as §1

[8] = tested on: Amaranthus retoflexus (AMARE); experiment: as above; settings: evaluated after 13 days
Experimental: as §1

Solanum nigrum (SOLNI) [9] = experiment: Post-emergence herbicide test, glasshouse, percentage damage; settings: evaluated after 13 days
Experimental: as §1

Lolium perenne (LOLPE) [10] = experiment: as above; settings: evaluated after 13 days
Experimental: as §1

Solanum nigrum (SOLNI) [11] = experiment: Pre-emergence herbicide test, glasshouse, percentage damage; settings: rate 1000 g/ha, evaluated after 13 days
Experimental: as §1

Lolium perenne (LOLPE) [12] = experiment: as above; settings: rate 1000 g/ha, evaluated after 13 days
Experimental: as §1

SMILES | percentage damage caused to the plant, ECHCG ([1]; 250 g/ha) | percentage damage caused to the plant, IPOHE ([2]; 250 g/ha) | percentage damage caused to the plant, SETFA (Setaria faberi (SETFA) [3]; 250 g/ha) | percentage damage caused to the plant, AMARE ([4]; 250 g/ha) | Pre-emergence Test ECHCG percentage damage (five point scale) ([5]; rate 250 g/ha) | Pre-emergence Test IPOHE percentage damage (five point scale) [6] | Pre-emergence Test SETFA percentage damage (five point scale) (Setaria faberi (SETFA) [7]; rate 250 g/ha) | Pre-emergence Test AMARE percentage damage (five point scale) ([8]; rate 250 g/ha) | further results
Fc1cc(Cl)cnc1Oc1ccccc1-n1cc(C(F)F)nn1 [Compound A169] | 5 (5=81-100%) | 5 (5=81-100%) | 5 (5=81-100%) | 5 (5=81-100%) | 5 (5=81-100%) | 5 (5=81-100%) | 5 (5=81-100%) | 5 (5=81-100%) | –
Cc1ccc(C#N)nc1Oc1cccc(F)c1-c1cc(C(F)F)no1 [Compound A76] | 1 (1=0-20%) | 3 (3=41-60%) | 1 (1=0-20%) | 2 (2=21-40%) | – | – | – | – | percentage damage caused to the plant, SOLNI (Solanum nigrum (SOLNI) [9]; 250 g/ha): 4 (4=61-80%); percentage damage caused to the plant, LOLPE (Lolium perenne (LOLPE) [10]; 250 g/ha): 1 (1=0-20%)
Fc1cc(Cl)cnc1Oc1cccc(I)c1-n1cc(C(F)(F)F)cn1 [Compound A57, 5-chloro-3-fluoro-2-[3-iodo-2-[4-(trifluoromethyl)pyrazol-1-yl]phenoxy]pyridine] | – | – | – | – | – | – | – | – | percentage damage caused to the plant, ECHCG ([1]; 1000 g/ha): 1 (1=0-20%); percentage damage caused to the plant, SOLNI (Solanum nigrum (SOLNI) [9]; 1000 g/ha): 5 (5=81-100%); percentage damage caused to the plant, IPOHE ([2]; 1000 g/ha): 2 (2=21-40%); percentage damage caused to the plant, SETFA (Setaria faberi (SETFA) [3]; 1000 g/ha): 4 (4=61-80%); percentage damage caused to the plant, LOLPE (Lolium perenne (LOLPE) [10]; 1000 g/ha): 1 (1=0-20%); percentage damage caused to the plant, AMARE ([4]; 1000 g/ha): 5 (5=81-100%); Pre-emergence Test ECHCG percentage damage (five point scale) ([5]; rate 1000 g/ha): 1 (1=0-20%); Pre-emergence Test SOLNI percentage damage (five point scale) (Solanum nigrum (SOLNI) [11]): 4 (4=61-80%); Pre-emergence Test SETFA percentage damage (five point scale) (Setaria faberi (SETFA) [7]; rate 1000 g/ha): 5 (5=81-100%); Pre-emergence Test LOLPE percentage damage (five point scale) (Lolium perenne (LOLPE) [12]): 1 (1=0-20%); Pre-emergence Test AMARE percentage damage (five point scale) ([8]; rate 1000 g/ha): 5 (5=81-100%)
Fc1cc(Cl)cnc1Oc1ccccc1-c1ccc(Cl)s1 [Compound A66, 5-chloro-2-[2-(5-chloro-2-thienyl)phenoxy]-3-fluoro-pyridine] | – | – | – | – | – | – | – | – | percentage damage caused to the plant, ECHCG ([1]; 1000 g/ha): 3 (3=41-60%); percentage damage caused to the plant, SOLNI (Solanum nigrum (SOLNI) [9]; 1000 g/ha): 5 (5=81-100%); percentage damage caused to the plant, IPOHE ([2]; 1000 g/ha): 2 (2=21-40%); percentage damage caused to the plant, SETFA (Setaria faberi (SETFA) [3]; 1000 g/ha): 2 (2=21-40%); percentage damage caused to the plant, LOLPE (Lolium perenne (LOLPE) [10]; 1000 g/ha): 1 (1=0-20%); percentage damage caused to the plant, AMARE ([4]; 1000 g/ha): 5 (5=81-100%)
FC(F)c1cc(-c2c(Br)cccc2Oc2ccc(Cl)cn2)on1 [Compound A100] | 5 (5=81-100%) | 2 (2=21-40%) | 5 (5=81-100%) | 5 (5=81-100%) | 2 (2=21-40%) | 1 (1=0-20%) | 5 (5=81-100%) | 5 (5=81-100%) | –
Cc1noc(-c2ccccc2Oc2ncc(Cl)cc2F)n1 [Compound A126] | – | – | – | – | 4 (4=61-80%) | 1 (1=0-20%) | 3 (3=41-60%) | 5 (5=81-100%) | –
Fc1cc(Cl)cnc1Oc1ccccc1-c1cc(C(F)F)on1 [Compound A163] | 5 (5=81-100%) | 3 (3=41-60%) | 5 (5=81-100%) | 5 (5=81-100%) | 4 (4=61-80%) | 1 (1=0-20%) | 5 (5=81-100%) | 5 (5=81-100%) | –

— US12227495B2, “Herbicidal compounds” (SYNGENTA CROP PROTECTION AG, priority 2018, dated 2025)
